How the values were obtained:
kochia = assay: Test A pre-/postemergence herbicide test; assay type: in vivo, Kochia scoparia; conditions: for Plant response rating, Kochia: 0 to 100 scale
Method in brief: (§1)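 Approximately 10 days after treatment in the greenhouse, plants were compared with untreated controls and given a 0–100 visual injury rating. Applications: preemergence directed soil spray; postemergence on 2–10 cm plants at the one- to two-leaf stage.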

ragweed = assay: Test A pre-/postemergence herbicide test; assay type: in vivo, Ambrosia elatior; conditions: for Plant response rating, Ragweed: 0 to 100 scale
Method in brief: as §1

corn = assay: Test A pre-/postemergence herbicide test; assay type: in vivo, Zea mays; conditions: Postemergence
Method in brief: as §1

blackgrass = assay: Test A postemergence herbicide test; assay type: in vivo, Alopecurus myosuroides
Method in brief: (§2)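 Young potted plants in a loam–sand mix, one- to two-leaf stage and 2–10 cm tall, receive the test chemical postemergence and stay in a greenhouse for approximately 10 days. Injury is then judged by eye against untreated plants, scored 0 (none) to 100 (complete control).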

ryegrass, Italian = assay: Test A pre-/postemergence herbicide test; assay type: in vivo, Lolium multiflorum; conditions: for Plant response rating, Ryegrass, Italian: 0 to 100 scale
Method in brief: as §1

barnyardgrass [1] = assay: Test A pre-/postemergence herbicide test; assay type: in vivo, Echinochloa crus-galli
Method in brief: as §1

rice = assay: Test B flooded paddy test; assay type: in vivo, Oryza sativa; conditions: 500 g ai/ha, Flood; scale of 0 to 100 where 0 is no effect and 100 is complete control
Method in brief: (§3)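 Plants grown to 2-leaf stage; pots flooded 3 cm above soil and compound applied directly into paddy water, depth held throughout. Visual rating against untreated controls after 13 to 15 days in greenhouse, 0 (no effect) to 100 (complete control).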

barnyardgrass [2] = assay: Test B flooded paddy test; assay type: in vivo, Echinochloa crus-galli; conditions: 500 g ai/ha, Flood; scale of 0 to 100 where 0 is no effect and 100 is complete control
Method in brief: as §3

giant foxtail = assay: Test A pre-/postemergence herbicide test; assay type: in vivo, Setaria faberii; conditions: for Plant response rating, Foxtail, Giant: 0 to 100 scale
Method in brief: as §1

galium = assay: Test A postemergence herbicide test; assay type: in vivo, Galium aparine; conditions: for Plant response rating, Galium: 125 g ai/ha, 0 to 100 scale, 0 no effect, 100 complete control; for Galium plant response rating (0 to 100 scale, 0 is no effect, 100 is complete control): 500 g ai/ha
Method in brief: as §2

sedge, umbrella = assay: Test B flooded paddy test; assay type: in vivo, Cyperus difformis; conditions: 500 g ai/ha, Flood; scale of 0 to 100 where 0 is no effect and 100 is complete control
Method in brief: as §3

ducksalad = assay: Test B flooded paddy test; assay type: in vivo, Heteranthera limosa; conditions: 500 g ai/ha, Flood; scale of 0 to 100 where 0 is no effect and 100 is complete control
Method in brief: as §3

wheat = assay: Test A pre-/postemergence herbicide test; assay type: in vivo, Triticum aestivum; conditions: Postemergence; for Plant response rating, Wheat: 125 g ai/ha, 0 to 100 scale, 0 no effect, 100 complete control; for Wheat plant response rating (0 to 100 scale, 0 is no effect, 100 is complete control): 500 g ai/ha
Method in brief: as §1

pigweed = assay: Test A pre-/postemergence herbicide test; assay type: in vivo, Amaranthus retroflexus; conditions: for Plant response rating, Pigweed: 0 to 100 scale
Method in brief: as §1

[3] = 125 g ai/ha, visual rating, 0 no effect, 100 complete control, approximately 10 days, preemergence
[4] = Postemergence, 125 g ai/ha, 0 no effect, 100 complete control
[5] = 125 g ai/ha, 0 to 100 scale, 0 no effect, 100 complete control
[6] = 500 g ai/ha, 0 to 100 scale (0 no effect, 100 complete control)
[7] = 125 g ai/ha, visual rating, 0 to 100 scale, 0 no effect, 100 complete control, approximately 10 days, preemergence
[8] = Postemergence, 125 g ai/ha, 0 to 100 scale, 0 no effect, 100 complete control
[9] = Postemergence, 500 g ai/ha, 0 to 100 scale (0 no effect, 100 complete control)
[10] = preemergence, 500 g ai/ha, 0 to 100 scale (0 no effect, 100 complete control)

| Compound | Plant response rating, Kochia (kochia; [3]) | Plant response rating, Kochia (kochia; [4]) | Kochia plant response rating (0 to 100 scale, 0 is no effect, 100 is complete control) (kochia; Postemergence, 500 g ai/ha) | Plant response rating, Kochia (kochia; preemergence, 500 g ai/ha) | Plant response rating, Ragweed (ragweed; [3]) | Plant response rating, Ragweed (ragweed; [4]) | Ragweed plant response rating (0 to 100 scale, 0 is no effect, 100 is complete control) (ragweed; Postemergence, 500 g ai/ha) | Plant response rating, Ragweed (ragweed; preemergence, 500 g ai/ha) | Plant response rating, Corn (corn; [5]) | Plant response rating, Corn (corn; [6]) | Plant response rating, Blackgrass (blackgrass; [5]) | Plant response rating, Blackgrass (blackgrass; [6]) | Plant response rating, Ryegrass, Italian (ryegrass, Italian; [3]) | Plant response rating, Ryegrass, Italian (ryegrass, Italian; [4]) | Ryegrass, Italian plant response rating (0 to 100 scale, 0 is no effect, 100 is complete control) (ryegrass, Italian; Postemergence, 500 g ai/ha) | Plant response rating, Ryegrass, Italian (ryegrass, Italian; preemergence, 500 g ai/ha) | Plant response rating, Barnyardgrass (barnyardgrass [1]; [7]) | Plant response rating, Barnyardgrass (barnyardgrass [1]; [8]) | Plant response rating, Barnyardgrass (barnyardgrass [1]; [9]) | Plant response rating, Barnyardgrass (barnyardgrass [1]; [10]) | also measured |
| --- | --- | --- | --- | --- | --- | --- | --- | --- | --- | --- | --- | --- | --- | --- | --- | --- | --- | --- | --- | --- | --- |
| O=C1NCC(c2cccc(OC(F)(F)C(F)F)c2)C1C(=O)Nc1ccccc1F (racemic) [Compound 121] | 60 | 50 | 60 | 70 | 70 | 0 | 30 | 70 | 50 | 70 | 60 | 70 | 0 | 40 | 50 | 0 | 80 | 70 | 80 | 90 | Plant response rating, Rice (rice): 35; Plant response rating, Barnyardgrass (barnyardgrass [2]): 70; Plant response rating, Foxtail, Giant (giant foxtail; [3]): 90; Plant response rating, Foxtail, Giant (giant foxtail; [4]): 80; Foxtail, Giant plant response rating (0 to 100 scale, 0 is no effect, 100 is complete control) (giant foxtail; Postemergence, 500 g ai/ha): 90; Plant response rating, Foxtail, Giant (giant foxtail; preemergence, 500 g ai/ha): 90; Plant response rating, Galium (galium): 60; Galium plant response rating (0 to 100 scale, 0 is no effect, 100 is complete control) (galium): 70; Plant response rating, Sedge, Umbrella (sedge, umbrella): 0; Plant response rating, Ducksalad (ducksalad): 100; Plant response rating, Wheat (wheat): 50; Wheat plant response rating (0 to 100 scale, 0 is no effect, 100 is complete control) (wheat): 60; Plant response rating, Pigweed (pigweed; [3]): 50; Plant response rating, Pigweed (pigweed; [4]): 0; Pigweed plant response rating (0 to 100 scale, 0 is no effect, 100 is complete control) (pigweed; Postemergence, 500 g ai/ha): 0; Plant response rating, Pigweed (pigweed; preemergence, 500 g ai/ha): 70 |
| O=C1NCC(c2cccc(OC(F)(F)C(F)F)c2)C1C(=O)Nc1ccc(F)cc1F (racemic) [Compound 122] | 60 | 70 | 70 | 70 | 0 | 30 | 70 | 60 | 40 | 60 | 50 | 70 | 0 | 0 | 40 | 0 | 80 | 70 | 80 | 90 | Plant response rating, Rice (rice): 15; Plant response rating, Barnyardgrass (barnyardgrass [2]): 65; Plant response rating, Foxtail, Giant (giant foxtail; [3]): 90; Plant response rating, Foxtail, Giant (giant foxtail; [4]): 80; Foxtail, Giant plant response rating (0 to 100 scale, 0 is no effect, 100 is complete control) (giant foxtail; Postemergence, 500 g ai/ha): 80; Plant response rating, Foxtail, Giant (giant foxtail; preemergence, 500 g ai/ha): 90; Plant response rating, Galium (galium): 70; Galium plant response rating (0 to 100 scale, 0 is no effect, 100 is complete control) (galium): 80; Plant response rating, Sedge, Umbrella (sedge, umbrella): 0; Plant response rating, Ducksalad (ducksalad): 100; Plant response rating, Wheat (wheat): 50; Wheat plant response rating (0 to 100 scale, 0 is no effect, 100 is complete control) (wheat): 60; Plant response rating, Pigweed (pigweed; [3]): 50; Plant response rating, Pigweed (pigweed; [4]): 60; Pigweed plant response rating (0 to 100 scale, 0 is no effect, 100 is complete control) (pigweed; Postemergence, 500 g ai/ha): 80; Plant response rating, Pigweed (pigweed; preemergence, 500 g ai/ha): 80 |
| O=C1NCC(c2cccc(OC(F)(F)C(F)F)c2)C1C(=O)Nc1ccc(F)c(F)c1F (racemic) [Compound 124] | 60 | 70 | 80 | 70 | 40 | 40 | 70 | 50 | 0 | 50 | 40 | 70 | 0 | 30 | 50 | 40 | 70 | 60 | 70 | 80 | Plant response rating, Rice (rice): 0; Plant response rating, Barnyardgrass (barnyardgrass [2]): 40; Plant response rating, Foxtail, Giant (giant foxtail; [3]): 80; Plant response rating, Foxtail, Giant (giant foxtail; [4]): 80; Foxtail, Giant plant response rating (0 to 100 scale, 0 is no effect, 100 is complete control) (giant foxtail; Postemergence, 500 g ai/ha): 90; Plant response rating, Foxtail, Giant (giant foxtail; preemergence, 500 g ai/ha): 90; Plant response rating, Galium (galium): 70; Galium plant response rating (0 to 100 scale, 0 is no effect, 100 is complete control) (galium): 80; Plant response rating, Sedge, Umbrella (sedge, umbrella): 0; Plant response rating, Ducksalad (ducksalad): 100; Plant response rating, Wheat (wheat): 30; Wheat plant response rating (0 to 100 scale, 0 is no effect, 100 is complete control) (wheat): 50; Plant response rating, Pigweed (pigweed; [3]): 70; Plant response rating, Pigweed (pigweed; [4]): 60; Pigweed plant response rating (0 to 100 scale, 0 is no effect, 100 is complete control) (pigweed; Postemergence, 500 g ai/ha): 70; Plant response rating, Pigweed (pigweed; preemergence, 500 g ai/ha): 80 |
